{
  "source": "patent US20260078130A1",
  "about": "“NAMPT MODULATORS, PREPARATIONS, AND USES THEREOF” (SIRONAX LTD., priority 2022, published 2026)",
  "key": {"[1]": {"target": "T1, human enzyme NAMPT (full length) (Homo sapiens, UniProt P43490)", "T1 construct": "human enzyme NAMPT (full length)", "T1 sequence (P43490 whole entry)": "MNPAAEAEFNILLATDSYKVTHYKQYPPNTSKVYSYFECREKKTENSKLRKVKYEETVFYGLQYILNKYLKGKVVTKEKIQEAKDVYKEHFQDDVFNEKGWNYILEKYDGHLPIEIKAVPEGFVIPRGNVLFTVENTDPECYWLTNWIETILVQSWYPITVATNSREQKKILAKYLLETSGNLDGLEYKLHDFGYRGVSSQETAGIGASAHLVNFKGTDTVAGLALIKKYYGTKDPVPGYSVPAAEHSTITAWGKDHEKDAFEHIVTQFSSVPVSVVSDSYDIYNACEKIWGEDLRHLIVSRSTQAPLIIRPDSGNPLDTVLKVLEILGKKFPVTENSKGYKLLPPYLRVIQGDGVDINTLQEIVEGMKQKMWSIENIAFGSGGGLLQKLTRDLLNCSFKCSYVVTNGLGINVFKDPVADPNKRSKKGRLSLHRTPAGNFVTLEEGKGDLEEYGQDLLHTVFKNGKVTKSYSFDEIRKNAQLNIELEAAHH", "experiment": "NMN fluorescence biochemical assay (stimulation of NMN synthesis by NAMPT)", "details": "for EC50: concentration giving half-maximal activation, read-out: Enzymatic EC50; for Enzymatic Emax: fold change of maximal activation compared to DMSO", "how_it_was_run": "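Full-length human NAMPT (100 nM) was preincubated 15 min at 37 °C with compound in 50 mM Tris-HCl pH 7.5, 10 mM MgCl2, 2 mM DTT, then reacted 1 h at 37 °C with 50 μM NAM, 100 μM PRPP, 4 mM ATP (stated solution concentrations). NMN was derivatised with acetophenone/KOH then formic acid and read at Ex/Em 382/445 nm; EC50 and Emax (fold over DMSO) reported.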"}, "[2]": {"system": "endogenous NAMPT in U2OS cells", "experiment": "Cellular NAD+ modulation assay (NAD/NADH-Glo, U2OS cells)", "format": "cell-based", "details": "Homo sapiens; for maximal fold induction: read-out: Cellular Emax", "how_it_was_run": "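Endogenous NAMPT stimulation in U2OS cells treated with compound dilution series for 24 h at 37 °C. Cells lysed with DTAB base, acid-treated 15 min at 60 °C, neutralized, NAD+ read by NAD/NADH-Glo luminescence after 40 min at room temperature. EC50 and Emax (fold over DMSO) derived.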"}, "[3]": {"details": "NMN fluorescence assay, purified human NAMPT 100 nM"}, "[4]": {"details": "24 hours incubation, cellular NAD+"}, "[5]": {"details": "NMN synthesis by purified human NAMPT (100 nM)"}, "[6]": {"details": "24 hours incubation with compound"}},
  "note": "Where two headings read alike, the source gives them in different places.",
  "data": [
    {"molecule": "Cc1ccc2c(c1)C(Cc1c(Cl)cnn1C)N(CC1CC3(CNC(=O)O3)C1)C2=O", "note": "(centres unmarked) [Compound 485, 2-((3-((4-chloro-1-methyl-1H-pyrazol-5-yl)methyl)-5-methyl-1-oxoisoindolin-2-yl)methyl)-5-oxa-7-azaspiro[3.4]octan-6-one]", "values": [
      {"measurement": "EC50", "setting": "[1]; [3]", "value": "500 to 5000", "unit": "nM"},
      {"measurement": "Enzymatic Emax", "setting": "[1]", "value": "B (3≥B>2)"},
      {"measurement": "EC50", "setting": "[2]; [4]", "value": "< 500", "unit": "nM"},
      {"measurement": "maximal fold induction", "setting": "[2]; [4]", "value": "> 1.5"}
    ]},
    {"molecule": "N#Cc1nccc(Br)c1CC1c2ccccc2C(=O)N1Cc1ccc2[nH]nnc2c1", "note": "(centres unmarked) [Compound 282, 3-((2-((1H-benzo[d][1,2,3]triazol-5-yl)methyl)-3-oxoisoindolin-1-yl)methyl)-4-bromopicolinonitrile]", "values": [
      {"measurement": "EC50", "setting": "[1]; [5]", "value": "< 500", "unit": "nM"},
      {"measurement": "Enzymatic Emax", "setting": "[1]", "value": "B (3≥B>2)"},
      {"measurement": "EC50", "setting": "[2]; [6]", "value": "< 500", "unit": "nM"},
      {"measurement": "maximal fold induction", "setting": "[2]; [6]", "value": "1.2 to 1.5"}
    ]},
    {"molecule": "Cc1cccc2c1C(=O)N(CC1CC3(CNC(=O)O3)C1)C2Cc1c(Cl)cnn1C", "note": "(centres unmarked) [Compound 460, 2-((1-((4-chloro-1-methyl-1H-pyrazol-5-yl)methyl)-4-methyl-3-oxoisoindolin-2-yl)methyl)-5-oxa-7-azaspiro[3.4]octan-6-one]", "values": [
      {"measurement": "EC50", "setting": "[1]; [3]", "value": "< 500", "unit": "nM"},
      {"measurement": "Enzymatic Emax", "setting": "[1]", "value": "B (3≥B>2)"},
      {"measurement": "EC50", "setting": "[2]; [4]", "value": "< 500", "unit": "nM"},
      {"measurement": "maximal fold induction", "setting": "[2]; [4]", "value": "> 1.5"}
    ]},
    {"molecule": "Cn1c(CC2c3ccccc3C(=O)N2CC2CC3(CNC(=O)O3)C2)c(Cl)ccc1=O", "note": "(centres unmarked) [Compound 467, 2-((1-((3-chloro-1-methyl-6-oxo-1,6-dihydropyridin-2-yl)methyl)-3-oxoisoindolin-2-yl)methyl)-5-oxa-7-azaspiro[3.4]octan-6-one]", "values": [
      {"measurement": "EC50", "setting": "[1]; [3]", "value": "< 500", "unit": "nM"},
      {"measurement": "Enzymatic Emax", "setting": "[1]", "value": "B (3≥B>2)"},
      {"measurement": "EC50", "setting": "[2]; [4]", "value": "< 500", "unit": "nM"},
      {"measurement": "maximal fold induction", "setting": "[2]; [4]", "value": "> 1.5"}
    ]},
    {"molecule": "Cc1ccccc1CC1c2ccncc2C(=O)N1Cc1ccc2[nH]c(=O)oc2c1", "note": "(centres unmarked) [Compound 168, 6-((1-(2-methylbenzyl)-3-oxo-1,3-dihydro-2H-pyrrolo[3,4-c]pyridin-2-yl)methyl)benzo[d]oxazol-2(3H)-one]", "values": [
      {"measurement": "EC50", "setting": "[1]; [5]", "value": "500 to 5000", "unit": "nM"},
      {"measurement": "Enzymatic Emax", "setting": "[1]", "value": "A (A>3)"},
      {"measurement": "EC50", "setting": "[2]; [6]", "value": "500 to 5000", "unit": "nM"},
      {"measurement": "maximal fold induction", "setting": "[2]; [6]", "value": "> 1.5"}
    ]},
    {"molecule": "COc1ccc2c(c1)C(C)N(Cc1ccc3[nH]c(=O)oc3c1)C2=O", "note": "(single isomer, unassigned) [Compound 243]", "values": [
      {"measurement": "EC50", "setting": "[1]; [5]", "value": "≥ 5000", "unit": "nM"},
      {"measurement": "Enzymatic Emax", "setting": "[1]", "value": "A (A>3)"},
      {"measurement": "EC50", "setting": "[2]; [6]", "value": "500 to 5000", "unit": "nM"},
      {"measurement": "maximal fold induction", "setting": "[2]; [6]", "value": "> 1.5"}
    ]},
    {"molecule": "Cn1ncc(Cl)c1CC1c2c(Cl)cccc2C(=O)N1Cc1ccc2[nH]nnc2c1", "note": "(centres unmarked) [Compound 339, 2-((1H-benzo[d][1,2,3]triazol-5-yl)methyl)-4-chloro-3-((4-chloro-1-methyl-1H-pyrazol-5-yl)methyl)isoindolin-1-one]", "values": [
      {"measurement": "EC50", "setting": "[1]; [3]", "value": "500 to 5000", "unit": "nM"},
      {"measurement": "Enzymatic Emax", "setting": "[1]", "value": "A (A>3)"},
      {"measurement": "EC50", "setting": "[2]; [4]", "value": "500 to 5000", "unit": "nM"},
      {"measurement": "maximal fold induction", "setting": "[2]; [4]", "value": "> 1.5"}
    ]},
    {"molecule": "CCc1ccc2c(c1)C(=O)N(Cc1ccc(O)cc1)C2=O", "note": "[Compound 41, 5-ethyl-2-(4-hydroxybenzyl)isoindoline-1,3-dione]", "values": [
      {"measurement": "EC50", "setting": "[1]; [5]", "value": "500 to 5000", "unit": "nM"},
      {"measurement": "Enzymatic Emax", "setting": "[1]", "value": "A (A>3)"},
      {"measurement": "EC50", "setting": "[2]; [6]", "value": "500 to 5000", "unit": "nM"},
      {"measurement": "maximal fold induction", "setting": "[2]; [6]", "value": "1.2 to 1.5"}
    ]},
    {"molecule": "O=C1c2ccccc2C(Cc2ccccc2F)N1Cc1ccc2[nH]c(=O)oc2c1", "note": "(centres unmarked) [Compound 146, 6-((1-(2-fluorobenzyl)-3-oxoisoindolin-2-yl)methyl)benzo[d]oxazol-2(3H)-one]", "values": [
      {"measurement": "EC50", "setting": "[1]; [5]", "value": "< 500", "unit": "nM"},
      {"measurement": "Enzymatic Emax", "setting": "[1]", "value": "A (A>3)"},
      {"measurement": "EC50", "setting": "[2]; [6]", "value": "< 500", "unit": "nM"},
      {"measurement": "maximal fold induction", "setting": "[2]; [6]", "value": "> 1.5"}
    ]},
    {"molecule": "O=C1c2ccccc2C(Cc2ncccc2Br)N1Cc1ccc2[nH]c(=O)oc2c1", "note": "(centres unmarked) [Compound 205, 6-((1-((3-bromopyridin-2-yl)methyl)-3-oxoisoindolin-2-yl)methyl)benzo[d]oxazol-2(3H)-one]", "values": [
      {"measurement": "EC50", "setting": "[1]; [5]", "value": "< 500", "unit": "nM"},
      {"measurement": "Enzymatic Emax", "setting": "[1]", "value": "A (A>3)"},
      {"measurement": "EC50", "setting": "[2]; [6]", "value": "< 500", "unit": "nM"},
      {"measurement": "maximal fold induction", "setting": "[2]; [6]", "value": "> 1.5"}
    ]},
    {"molecule": "Cn1ncc(Cl)c1CC1c2ccccc2C(=O)N1CC1CC2(CNC(=S)O2)C1", "note": "(centres unmarked) [Compound 490, 3-((4-chloro-1-methyl-1H-pyrazol-5-yl)methyl)-2-((6-thioxo-5-oxa-7-azaspiro[3.4]octan-2-yl)methyl)isoindolin-1-one]", "values": [
      {"measurement": "EC50", "setting": "[1]; [3]", "value": "500 to 5000", "unit": "nM"},
      {"measurement": "Enzymatic Emax", "setting": "[1]", "value": "B (3≥B>2)"},
      {"measurement": "EC50", "setting": "[2]; [4]", "value": "500 to 5000", "unit": "nM"},
      {"measurement": "maximal fold induction", "setting": "[2]; [4]", "value": "> 1.5"}
    ]}
  ]
}
